Earlier results as cited in patent US9907782B2, “Treatment or prevention of seborrheic keratosis using artemisinin and derivatives thereof” (EPIPHARM AG, priority 2014, dated 2018).

How the values were obtained:
psoriasis = settings: topical; three psoriasis patients
melanin synthesis = settings: according to US 2010/0061948 A1, allegedly
tyrosinase = target: T1, tyrosinase (Homo sapiens, UniProt P14679); settings: according to US 2010/0061948 A1, allegedly
T1 sequence (P14679 19-529): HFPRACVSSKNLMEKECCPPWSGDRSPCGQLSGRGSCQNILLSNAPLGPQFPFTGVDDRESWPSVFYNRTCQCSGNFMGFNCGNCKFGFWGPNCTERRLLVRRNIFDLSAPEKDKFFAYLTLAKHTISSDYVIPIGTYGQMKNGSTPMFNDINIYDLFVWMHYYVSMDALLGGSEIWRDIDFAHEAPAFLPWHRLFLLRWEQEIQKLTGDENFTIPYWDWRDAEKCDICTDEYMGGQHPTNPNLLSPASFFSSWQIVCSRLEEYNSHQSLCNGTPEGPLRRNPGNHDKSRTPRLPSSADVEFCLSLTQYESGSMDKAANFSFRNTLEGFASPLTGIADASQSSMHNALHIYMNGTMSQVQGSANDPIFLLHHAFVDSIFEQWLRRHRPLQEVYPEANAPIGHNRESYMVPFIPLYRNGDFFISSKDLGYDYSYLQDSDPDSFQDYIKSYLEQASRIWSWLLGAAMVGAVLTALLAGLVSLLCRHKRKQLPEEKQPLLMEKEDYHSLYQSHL

[1] = test system: seborrheic keratosis lesions; settings: for clinical improvement: once daily application, calcipotriene 0.005% ointment, imiquimod 5% cream
[2] = test system: seborrheic keratosis lesions

Q: For `C[C@@H]1CC[C@H]2[C@@H](C)C(=O)O[C@@H]3O[C@@]4(C)CC[C@@H]1[C@]32OO4` [artemisinin], which solubility in water is on record?
A: The solubility in water was “very hard to dissolve in water”.

Q: What about the treatment of psoriasis (psoriasis) of the same molecule?
A: The treatment of psoriasis was “successfully”.

Q: What about the melanin synthesis (melanin synthesis) of the same molecule?
A: Its melanin synthesis is “suppressed”.

Q: What about the tyrosinase activity (tyrosinase) of the same molecule?
A: Its tyrosinase activity is “suppressed”.

Q: Which solubility in water does the source give for `C[C@H]1[C@H](OC(=O)CCC(=O)O)O[C@@H]2O[C@@]3(C)CC[C@H]4[C@H](C)CC[C@@H]1[C@@]24OO3` [artesunate] here?
A: The solubility in water was “more water-soluble”.

Q: Which clinical improvement ([1]; tazarotene 0.1% cream) does the source give for `C=C1/C(=C\C=C2/CCC[C@]3(C)[C@@H]([C@H](C)/C=C/[C@@H](O)C4CC4)CC[C@@H]23)C[C@@H](O)C[C@@H]1O` [calcipotriene] here?
A: Its clinical improvement is “did not result in any clinical improvement”.

Q: With `C[C@H]1[C@@H](O)O[C@@H]2O[C@@]3(C)CC[C@H]4[C@H](C)CC[C@@H]1[C@@]24OO3` [dihydroartemisinin] as the molecule, how does the solubility in water read?
A: The solubility in water was “more water-soluble”.

Q: For `CC(C)Cn1cnc2c(N)nc3ccccc3c21` [imiquimod], which clinical improvement ([1]; tazarotene 0.1% cream) is on record?
A: The clinical improvement was “did not result in any clinical improvement”.

Q: Which results are given for `CCOC(=O)c1ccc(C#Cc2ccc3c(c2)C(C)(C)CCS3)nc1` [tazarotene]?
A: clinical and histological improvement ([1]; bi-daily application, tazarotene 0.1% cream): less than half the patients; clinical improvement ([1]; tazarotene 0.1% cream): did not result in any clinical improvement; patients reporting burning, pruritus and redness (irritation) ([1]; topical tazarotene): ⅔

Q: With `NC(N)=O` [urea] as the molecule, how does the side effects ([2]; 50% urea under occlusion) read?
A: The side effects was “no side effects were reported”.

Q: What about the “thickness of seborrheic keratosis lesions” value ([2]; 50% urea under occlusion and digitally scraping the lesions, lesions did persist albeit with reduced size) of the same molecule?
A: The value was “some reduction of the thickness”.
